According to article PMC5215806 (Chemical Science, 2016):

Assays:
FzmQ (His6-FzmQ) = assay: spectrophotometric assay of CoA formation; type: biochemical, Streptomyces sp. NRRL S-149; conditions: read-out: Km (apparent); co-substrate acetyl-CoA
FzmM (His6-FzmM) = assay: steady-state kinetics of N-hydroxylation; type: biochemical, Streptomyces sp. NRRL S-149; conditions: read-out: Km (apparent); co-substrates O2, NADPH, FAD

| Structure (SMILES) | Km (FzmQ (His6-FzmQ)) [µM] | Km (FzmM (His6-FzmM)) [µM] |
| --- | --- | --- |
| NNC(CC(=O)O)C(=O)O (centres unmarked) [hydrazinosuccinate] | 4.2 ± 0.8 |  |
| N[C@@H](CC(=O)O)C(=O)O [L-Asp] |  | 790 ± 70 |
